# Details: pH 2.0
row,SMILES,logD
1,COCON1C(=O)CN(C(C)=O)[C@H]1c1ccc(Cl)cc1Cl,1.98
2,O=C(COC(=O)/C=C/c1ccc(F)cc1)Nc1cc(C(F)(F)F)ccc1N1CCOCC1,5.08
3,O=S(=O)(/C=C/C=C/Sc1ccccc1)c1ccccc1,4.03
4,O=C(/C=C/c1ccco1)Nc1ccccc1NC(=O)/C=C/c1ccco1,3.79
5,CC[C@@H](OC(=O)CNC(=O)c1ccc(N2C(=O)c3ccccc3C2=O)cc1)C(=O)c1ccccc1,4.15

# Same assay, conditions: pH 5.0
row,SMILES,logD
1,O=C1/C(=C/c2c(Sc3ccccc3)nc3ccccn3c2=O)SC(=S)N1C[C@H]1CCCO1,5.87
2,CC1CCN(S(=O)(=O)N2CCC(C(=O)N[C@@H](C)c3ccccc3)CC2)CC1,4.92
3,C[C@@H](OC(=O)c1cccc(C(F)(F)F)c1)C(N)=O,2.75
4,Cc1c(Cl)c(C(F)(F)F)nn1[C@@H](C)C(=O)N1CCOCC1,3.08
5,CCOC(=O)c1c(NC=C2C(=O)N(C)C(=O)N(C)C2=O)sc2c1CC[C@@H](CC)C2,5.76
6,CCOC(=O)C1=C(C)OC(N)=C(C#N)[C@H]1c1cccc(I)c1,4.48
7,COC(=O)[C@H](CCSC)NC(=O)c1cc2c(n(-c3ccccc3)c1=O)CC(C)(C)CC2=O,3.97
8,O=C(Nc1ccc2c(c1)OCO2)[C@@H]1COc2ccccc2O1,3.28
9,CCOC(=O)N1CCN(C(=O)c2ccc(N3C(=O)[C@H]4CCCC[C@@H]4C3=O)cc2)CC1,3.74
10,CCOc1ccc(C[C@H]2c3cc(OCC)c(OCC)cc3CCN2C(=O)c2scnc2C)cc1OCC,4.98
11,O=C1C[C@@H](c2c(F)cccc2Cl)c2cc3c(cc2N1)OCCO3,3.96
12,CC1=C(C)C[C@@H]2C(=O)N(c3cccc(Br)c3)C(=O)[C@H]2C1,3.93
13,CC1(C)C[C@](C)(O)[P@](C)(=O)O1,0.71
14,Cc1ccc(C(=O)COc2cccc(N3C(=O)[C@@H]4[C@H]5CC[C@H](C5)[C@@H]4C3=O)c2)cc1C,4.71
15,O=C(NC[C@@H]1CCCO1)c1sc2ccccc2c1Cl,3.56
16,C[C@@H](Oc1ccc(F)cc1F)C(=O)c1cn(-c2ccc(OC(F)(F)F)cc2)nn1,5.83
17,CCNC(=O)/C(=C/c1cn(-c2ccccc2)nc1-c1cccs1)NC(=O)c1ccccc1,4.64
18,OCC#CC(O)(c1ccc(F)cc1)c1ccc(F)cc1,3.61
19,C[C@@H]1C=CC[C@@H]2C(=O)N(c3cccc(C(=O)OCC(=O)c4ccc(Br)cc4)c3)C(=O)[C@H]12,5.29
20,O=C(c1cccc(COCC(F)(F)C(F)F)c1)N1CC[C@@H](C(F)(F)F)n2nccc21,4.27
21,COc1ccccc1[C@@H]1CC(=O)Nc2cc(C)c(C)cc21,4.17
22,CCCS(=O)(=O)c1c(S(=O)(=O)CCC)c2c3ccccc3ccn2c1C(=O)c1ccccc1,4.48
23,COc1ccc([C@@H]2CCCC[C@H]2O)cc1,2.85

row,SMILES,logD
1,O=C1/C(=C/c2ccsc2)SC(=S)N1c1cccc(C(F)(F)F)c1,5.8
2,O=C(/C=C/Nc1cccc(C(F)(F)F)c1)c1ccc(Br)cc1,5.65
3,C[C@H](NC(=O)C1CC1)c1ccccc1,1.85
4,Cc1cc(Cl)ccc1O[C@@H](C)C(=O)NC1CCCCCC1,5.45
5,COc1cc([C@H]2C(C(=O)c3ccccc3)=C(N)N(c3ccccc3C(F)(F)F)C3=C2C(=O)CCC3)cc(OC)c1OC,4.51
6,CCC[C@@H]1C(=O)C[C@H](C(C)C)C(C#N)(C#N)C1(C#N)C#N,3.3
7,COc1cc(/C=C/C(=O)N[C@H]2CCCc3ccccc32)cc(OC)c1OC,4.27
8,O=C(CN1C(=O)c2ccccc2S1(=O)=O)Nc1ccc(S(=O)(=O)N2CCCCCC2)cc1,4.73
9,CCOC(=O)N1CCN(C(=O)c2noc3c2C[C@@H](C(C)(C)C)CC3)CC1,4.52
10,CCOC(=O)c1[nH]c(C)c(C(=O)OCC(=O)N(C)[C@@H]2CCS(=O)(=O)C2)c1C,3.35
11,CCN(C(=O)COC(=O)/C(=C/c1ccc(Cl)cc1)c1ccc(F)cc1)[C@@H]1CCS(=O)(=O)C1,4.95
12,O=C(/C=C/c1ccc2c(c1)OCO2)NCCCCNC(=O)/C=C/c1ccc2c(c1)OCO2,4.59
13,C=C1NC(=S)N[C@H](c2ccc(-c3ccc(C(C)=O)cc3)o2)[C@H]1C(=O)OC(C)(C)C,4.53
14,CCCOc1ccc(NC(=O)C[C@H]2C(=O)N(c3ccc(Cl)cc3)C(=S)N2C2CC2)cc1,5.41
15,COc1ccc([C@H]2CC(=O)C3=C(C2)Nc2ccc4ccccc4c2[C@@H]3c2ccc3c(c2)OCO3)cc1,5.77
16,Cc1cccc(NC(=O)Cc2ccc(Br)cc2)c1C,4.05
17,N#C[C@@H](Cc1cccs1)c1ncc(C(F)(F)F)cc1Cl,4.09
18,O=C1[C@H]2[C@@H](C(=O)N1c1ccccc1)C1(O[C@H]2c2ccccc2)C(=O)c2ccccc2C1=O,4
19,CCOC(=O)c1c(NC(=O)[C@@H]2C[C@H]3CC[C@@H]2C3)sc(C(=O)N(CC)CC)c1C,5.05
20,O=C1CC[C@H]2CCCC[C@@]2(O)O1,1.16
21,CC(=O)c1ccc(NC(=O)CNC(=O)CNC(=O)[C@@H]2O[C@@H]3OC(C)(C)O[C@@H]3[C@H]3OC(C)(C)O[C@H]32)cc1,3.39
22,COC(=O)N[C@H](O)C(=O)c1ccccc1,1.41
23,COCCCNC(=S)N1[C@H](C)CCC[C@H]1C,2.8

# Same assay, conditions: pH 6.0
row,SMILES,logD
1,CC1=C(C(=O)N2CCCCC2)C(c2cccs2)C2=C(O)CCCC2=N1 (configuration not stated),3.37

# Same assay, conditions: pH 6.5
row,SMILES,logD
1,N#CC1(C#N)[C@H](c2ccc(Br)s2)[C@@H](C(=O)c2ccccc2)N2c3ccccc3C=C[C@@H]21,5.05
2,O=C(c1ccc(Cl)cc1)N(Cc1ccc(Cl)c(Cl)c1)N1C(=O)[C@@H]2CCCC[C@H]2C1=O,5.51
3,CCOC(=O)c1[nH]c(C)c(C(=O)OCC(=O)N2CCc3ccccc32)c1C,4.47
4,COC(=O)c1cc(N2C(=O)[C@H]3[C@@H](C2=O)[C@]2(C(OC(C)=O)OC(C)=O)C=C[C@H]3O2)ccc1Cl,3.77
5,COc1ccccc1N(CCOC(=O)[C@@H]1CC(=O)N(c2ccccc2)C1)C1=NS(=O)(=O)c2ccccc21,2.5
6,CCCCNC(=S)N(C)/N=C/c1ccc(OCc2ccc(Cl)cc2)c(OC)c1,6.8
7,COc1cc(/C=C(\NC(=O)c2ccccc2)C(=O)Nc2cccc(CO)c2)ccc1OC(C)=O,4.04

# Same assay, conditions: pH 7.0
row,SMILES,logD
1,O=C(/C=C/c1ccccc1)Nc1ccc(N2CCN(C(=O)c3cccs3)CC2)cc1,4.94

# Same assay, conditions: pH 7.3
row,SMILES,logD
1,COc1ccc([C@H]2C[C@@H](c3ccc(-c4ccccc4)cc3)Nc3ncnn32)cc1,5.42
2,CC[C@@H](SC1=Nc2ccccc2C2=N[C@@H](CC(C)C)C(=O)N12)C(=O)Nc1ccc2c(c1)OCO2,4.85
3,COc1cccc([C@@H]2C3=C(CCCC3=O)N=C(C)C2C(=O)OC[C@@H]2CCCO2)c1 (some centres not stated),3.62
4,CCOC(=O)C1=C(N)n2c(s/c(=C\c3ccc(C(=O)OC)cc3)c2=O)=C(C(=O)OC)C1c1ccc(C(=O)OC)cc1 (configuration not stated),6.95
5,CCOc1ccc(Br)cc1[C@H]1C2=C(CC(C)(C)CC2=O)Nc2ncnn21,3.85
6,CCOc1ccc([C@@H]2Oc3nc(SC)nnc3-c3ccccc3N2C(=O)CC)cc1OC,3.95
7,O=C(c1cccc(S(=O)(=O)N2CCOCC2)c1)N1CCN(c2cccc(Cl)c2)CC1,4.34
8,CC(C)[C@@H](C(=O)Nc1nc(-c2ccc(S(=O)(=O)N3CCOCC3)cc2)cs1)N1C(=O)c2ccccc2C1=O,5.32
9,CCCn1c2ccccc2c2nnc(SCC(=O)N[C@H](C)c3ccccc3)nc21,4.36

# Same assay, conditions: pH 8.0
row,SMILES,logD
1,Cc1sc2ncn(CC(=O)N[C@@H]3CCC[C@@H](C)[C@H]3C)c(=O)c2c1C,4.34
2,COC(=O)CSc1nc(NCC(C)C)nc(N2CCOCC2)n1,3.75

# Same assay, conditions: pH 9.0
row,SMILES,logD
1,CC(=O)Nc1ccc([C@@H]2C(C#N)=C(N)Oc3[nH]nc(-c4cc(C)sc4C)c32)cc1,4.26

# Same assay, conditions: pH 10.0
row,SMILES,logD
1,CC1=C(C(=O)OC[C@@H]2CCCO2)[C@H](c2cc([N+](=O)[O-])ccc2Cl)C2=C(CC(C)(C)CC2=O)N1,4.53
2,C(=N\n1cnnc1)/c1ccc(-n2nc(-c3ccccc3)cc2-c2ccccc2)cc1,5.58
3,CCOCCOC(=O)C1=C(C)NC2=C(C(=O)CCC2)[C@@H]1c1ccc(C)cc1,3.89
4,O=C1[C@@H]2C3c4ccccc4C(c4ccccc43)[C@@H]2C(=O)N1c1nccs1,3.83
5,CSc1ccc([C@@H]2[C@@H]3C(=O)N(c4cccc(C(F)(F)F)c4)C(=O)[C@H]3ON2c2ccccc2)cc1,5.98
6,CCOC(=O)c1c(CC(C)C)csc1/N=C/c1c(C)nn(-c2ccccc2)c1O,5.16
7,CC[C@@H](SC1=Nc2ccccc2C2=N[C@@H](Cc3ccccc3)C(=O)N12)C(=O)N1CCOCC1,3.95
8,COc1ccccc1[C@H]1CC(=O)C2=C(C1)NC(C)=C(C(=O)OC1CCCC1)[C@H]2c1ccc(OC(C)=O)cc1,5.81

# Same assay, conditions: pH 10.5
row,SMILES,logD
1,CN(c1ccccc1)S(=O)(=O)c1ccc(C(=O)N2CCN(c3ccccc3Cl)CC2)cc1,5.31
2,C/C(=C\c1ccco1)[C@H]1C(C#N)=C(N)Oc2n[nH]c(-c3ccccc3)c21,4.82
3,O=C(c1ccccc1)N1CCCC[C@@H](Sc2nnc3ccccn23)C1=O,3.14
4,Clc1ccc(/C=N/NC2=Cn3c(nc4ccccc43)NN2)cc1,4.81
5,COc1cc([C@@H]2C(C#N)=C(N)Oc3[nH]nc(C)c32)ccc1OCc1cccc(F)c1,4.42
6,COc1ccc([C@H]2C(C#N)=C(N)N(c3ccccc3C(F)(F)F)C3=C2C(=O)CCC3)cc1CSc1ccccn1,5.45
7,CN(C)/C=C/C(=O)c1ccc(C#Cc2ccccc2)cc1,4.69
8,C=CCn1/c(=N/C(=O)c2cc(OC)c(OC)c(OC)c2)sc2cccc(OC)c21,5.14
9,COc1ccc(N2C(=O)C[C@@H](Sc3nc(C)cc(C)n3)C2=O)cc1OC,2.95
10,CC(C)=CCCC1=NN(C=O)[C@@](C)(CCC=C(C)C)C1,5.02
11,N#CC1=C(N)OC2=NN=C(c3cccs3)[C@@H]2[C@@H]1C1CCCCC1,4.64
12,COC(=O)c1c(C)sc2c1OC(N)=C(C#N)[C@@H]2c1cc(Br)cs1,5.06
13,N#CC1=C(N)Oc2c(c(=O)oc3ccccc23)[C@H]1c1cccs1,2.34
14,Cc1ccc(NCc2ccc3n2C/C(=C2/CCn4c(CNc5ccc(C)cc5)ccc42)C3=O)cc1,6.51
15,C[C@H](NC(=O)CSc1ncnc2c1cnn2-c1ccccc1)c1ccccc1,4.73
16,CCc1cc2c3c(c1)[C@]1(C(=O)N3C(C)(C)C=C2C)C(C#N)=C(N)OC2=C1C(=O)CC(C)(C)C2,5.39
17,COC(=O)CC1=C(C(=O)OC)[C@]2(C(=O)Nc3ccccc32)C(C(=O)OCc2ccccc2)=C(N)O1,4.25
